This is an account of results in patent US6586241B1, “Methods to identify compounds affecting mitochondria” (Johns Hopkins University, priority 1998, dated 2003).

Entries after “also recorded” stand apart in the source; their conditions may differ. Where two headings read alike, the source gives them in different places.

Assay [1] has as its system mitochondrial flavoprotein oxidation (mitochondrial KATP channels). Put plainly: Flavoprotein fluorescence measurement of mitochondrial redox state in intact ventricular myocytes. Type of assay: cell-based, rabbit. The source says:
(§1) In the following Examples, ventricular myocytes were isolated from adult rabbit hearts by conventional enzymatic dissociation, according to Liu, Y., et al., “Synergistic modulation of ATP-sensitive K^+ currents by protein kinase C and adenosine: implications for ischemic preconditioning”, Circ. Res., 1996, 78: 443-454, then washed several times with calcium-free solution. […].
(§2) For whole-cell patch recordings, the internal pipette solution contained (in mM): 120 K-glutamate, 25 KCI, 0.5 MgCl2, 10 K-EGTA, 10 HEPES and 1 MgATP (pH 7.2 with KOH). The external solution included (in mM): 140 NaCl, 5 KCI, 1 CaCl2, 1 MgCl2, and 10 HEPES (pH 7.4 with NaOH). Whole-cell currents were elicited every 6 sec from a holding potential of −80 mV by two consecutive steps to −40 mV (for 100 msec) and 0 mV (for 380 msec). Currents at 0 mV were measured 200 msec into the pulse. Endogenous flavoprotein fluorescence was excited using a xenon arc lamp with a bandpass filter centered at 480 nm, but only during the 100 msec step to −40 mV t to minimize photobleaching. Emitted fluorescence was recorded at 530 nm by a photomultiplier tube and digitized (Digidata 1200, Axon Instruments). (See Paucek, P., et al., “Cardioprotective effect of diazoxide and its interaction with mitochondrial KATP: possible mechanism of cardioprotection”, J. Mol Cell Cardiol, 1997, 29: A199(Abstract)). Relative fluorescence was averaged during the excitation window and calibrated using the values after dinitrophenol (DNP) and sodium cyanide (CN) exposure.

Assay [2] concerns the target T1, sarcolemmal KATP channels (Oryctolagus cuniculus, UniProt O02822+P82451).
T1 construct: ventricular myocytes were isolated from adult rabbit hearts by conventional enzymatic dissociation; endogenous in cells; host or cells: primary adult rabbit ventricular myocytes
Put plainly: Whole-cell patch recording of sarcolemmal KATP current (IKATP). The note with it: for activation of IKATP: treatment with diazoxide and 5-HD, FIG. 4. The format is cell-based, rabbit.
Description: as §1, §2

In assay [3] the test system is rabbit ventricular myocytes. The assay can be described thus: Simulated ischemia (cell pelleting) and cellular injury, trypan blue. Type of assay: cell-based. The note with it: for cytotoxicity at 50 µM: Oryctolagus cuniculus, Ventricular myocyte, 50 μM diazoxide, read-out: cells killed (% of viable cells prior to ischemia). The procedure:
In the following Examples, the procedure to determine cell injury was modified from […] al. […]., et al., “An in vitro model of myocardial ischemia utilizing isolated adult rat myocytes”, J. Mol. Cell Cardiol, 1990, 22: 165-181. After cell isolation, cells were washed with incubation buffer (in mM): NaCl 119, NaHCO3 25, KH2PO4 1.2, KCl 4.8, MgSO4 1.2, HEPES 10, glucose 11, and supplemented with creatine, taurine and amino acids (pH 7.4). Calcium was added into the buffer stepwise (0.25 mM every 5 minutes) to a final concentration of 1 mM. An aliquot of each cell suspension (0.5 ml) was placed in a 0.5 ml microcentrifuge tube and centrifuged for 20 seconds into a pellet. Each pellet occupied a volume of about 0.2 ml. Approximately 0.25 ml of excess supernatant was removed to leave a thin fluid layer above the pellet, and 0.2 ml of mineral oil was layered on the top of the pellet to exclude gaseous diffusion. After 60 min and 120 min of pelleting, 5 μl of cell pellet were sampled through the oil layer and mixed with 75 µl of 85 mOsm hypotonic staining solution (in mM): […] Microscopic examination was performed 2-5 min after mixing to determine the permeability of the cells to trypan blue. Cells permeable to trypan blue were counted as dead and expressed as a percentage of the total cells counted (>200 for each sample). The killing of cells by ischemia was quantified as percentage of the vital cells at the beginning of each experiment (78-90% of total, mean=82±1% n=24). The small percentage of cells ( 18%) that were non-viable at the beginning of the experiment were mostly rounded and had been damaged as a known consequence of the enzymatic isolation process. Mitra, R., et al., “A uniform enzymatic method for dissociation of myocytes from hearts and stomachs of vertebrates”, Am. J. Physiol, 1985, 249: […]-[…]. Individual experiments in each of four groups were performed on cells isolated from different hearts. In the control group (Cont), cells were pelleted and sampled at the 60 min and 120 min. For the diazoxide-treated group (Diazo), 50 μM of diazoxide was added into the solution 15 min before the pelleting. In the third group (5-HD), 100 μM of 5-HD was added into the cell suspension 20 min prior to pelleting. Cells in the Diazo+5HD group were treated the same as in the third group except that 50 μM of diazoxide was added into the cell suspension 15 min before pelleting. Once applied, drugs were not washed out, and thus were present throughout the period of simulated ischemia.

Assay [4] deals with mitochondria of ventricular myocytes. The format is cell-based, rabbit. The note with it: sequential exposure diazoxide, DNP, CN; FIG. 8.
Description: In the following Examples, Confocal images were obtained using a Diaphot 300 inverted fluorescence microscope with a PCM-2000 confocal scanning attachment (Nikon, Inc.). Fluorescence was excited by the 488 nm line of an argon laser and the emission at 505-535 nm was recorded. A time series of images was collected at intervals of ˜10 sec and baseline, diazoxide, DNP and CN images were enhanced by averaging 8-10 sequential images having stable mean fluorescence intensities during the exposure to each agent.
To localize mitochondria, cells were loaded with 100 nM TMRE, which distributes into negatively charged cellular compartments, for 10 min., (Lemasters, J. J., et al., “Measurement of electrical potential, pH, and free calcium ion concentration in mitochondria of living cells by laser scanning confocal microscopy”, in Anonymous: Methods in Enzymology., New York, Academic Press, 1995, pp 429-417). TMRE fluorescence was excited with the 535 nm line of a helium neon laser and recorded at greater than 605 nm. A pseudocolor palette was applied to visualize the relative increase in mitochondrial flavoprotein oxidation state.
Images were analyzed on a personal computer using the software program ImageTool (University of Texas Health Sciences Center in San Antonio). All the recordings were performed at room temperature (21-22° C.).
The subject of assay [5] is intact hearts. The note with it: Paucek et al. 1997; cited from earlier work.

T1 sequence (P82451 whole entry): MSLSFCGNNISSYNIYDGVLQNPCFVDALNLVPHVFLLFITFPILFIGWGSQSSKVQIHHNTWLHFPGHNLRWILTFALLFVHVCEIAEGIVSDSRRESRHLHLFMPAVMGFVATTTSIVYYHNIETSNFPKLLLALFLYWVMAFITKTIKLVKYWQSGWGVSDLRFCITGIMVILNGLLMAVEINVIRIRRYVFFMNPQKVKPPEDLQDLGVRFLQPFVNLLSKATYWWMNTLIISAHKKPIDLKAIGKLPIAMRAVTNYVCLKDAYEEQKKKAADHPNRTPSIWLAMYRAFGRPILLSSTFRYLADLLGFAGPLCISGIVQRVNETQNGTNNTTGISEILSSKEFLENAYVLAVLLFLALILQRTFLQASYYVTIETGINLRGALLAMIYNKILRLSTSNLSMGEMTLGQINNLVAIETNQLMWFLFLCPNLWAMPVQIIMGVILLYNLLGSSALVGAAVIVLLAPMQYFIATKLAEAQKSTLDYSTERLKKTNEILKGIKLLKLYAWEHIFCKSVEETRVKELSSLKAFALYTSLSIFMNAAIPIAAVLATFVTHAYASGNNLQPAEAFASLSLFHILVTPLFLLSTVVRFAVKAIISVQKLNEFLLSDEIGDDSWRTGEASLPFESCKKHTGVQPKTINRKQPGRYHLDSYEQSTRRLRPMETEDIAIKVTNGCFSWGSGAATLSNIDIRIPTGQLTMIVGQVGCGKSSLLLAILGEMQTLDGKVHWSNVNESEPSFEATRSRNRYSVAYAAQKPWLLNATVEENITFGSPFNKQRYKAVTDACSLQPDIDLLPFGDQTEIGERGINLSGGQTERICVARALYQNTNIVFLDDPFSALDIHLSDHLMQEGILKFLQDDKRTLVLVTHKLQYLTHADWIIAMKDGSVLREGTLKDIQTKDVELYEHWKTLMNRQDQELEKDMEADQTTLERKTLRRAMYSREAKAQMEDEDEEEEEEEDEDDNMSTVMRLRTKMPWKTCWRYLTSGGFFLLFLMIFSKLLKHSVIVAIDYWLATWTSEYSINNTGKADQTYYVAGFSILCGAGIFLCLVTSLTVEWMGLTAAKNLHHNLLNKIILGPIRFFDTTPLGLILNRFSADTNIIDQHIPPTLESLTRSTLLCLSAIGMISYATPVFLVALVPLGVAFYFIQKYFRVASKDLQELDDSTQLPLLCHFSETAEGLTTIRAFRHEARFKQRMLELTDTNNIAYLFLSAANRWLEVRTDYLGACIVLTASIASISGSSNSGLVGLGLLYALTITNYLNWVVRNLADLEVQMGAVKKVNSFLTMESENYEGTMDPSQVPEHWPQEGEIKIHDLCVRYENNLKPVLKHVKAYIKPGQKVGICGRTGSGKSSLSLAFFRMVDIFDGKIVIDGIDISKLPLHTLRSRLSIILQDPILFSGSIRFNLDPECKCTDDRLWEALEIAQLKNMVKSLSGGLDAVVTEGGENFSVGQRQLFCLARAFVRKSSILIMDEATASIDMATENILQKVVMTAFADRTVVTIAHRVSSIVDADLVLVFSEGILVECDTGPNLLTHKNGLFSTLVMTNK
T1 sequence (O02822 whole entry): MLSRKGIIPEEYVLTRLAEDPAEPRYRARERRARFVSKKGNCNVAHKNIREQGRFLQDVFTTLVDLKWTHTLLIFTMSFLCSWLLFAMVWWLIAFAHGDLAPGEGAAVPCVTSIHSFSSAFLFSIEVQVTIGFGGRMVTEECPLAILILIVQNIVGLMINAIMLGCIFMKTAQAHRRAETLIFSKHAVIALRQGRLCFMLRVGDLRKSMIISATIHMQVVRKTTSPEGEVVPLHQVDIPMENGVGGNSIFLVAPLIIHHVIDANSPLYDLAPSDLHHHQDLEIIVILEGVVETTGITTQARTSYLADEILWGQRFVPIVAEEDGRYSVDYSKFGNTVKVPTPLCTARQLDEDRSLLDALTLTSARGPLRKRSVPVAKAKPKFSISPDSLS

For `CCCCCC(O)CCCC(=O)O.[Na]` (centres unmarked) [5-HD, 5-hydroxydecanoic acid sodium], in assay [1] (100 μM 5-HD in the presence of diazoxide, FIG. 3), the “attenuation of the oxidative effect of diazoxide” value was “about half”. The “block of flavoprotein oxidation induced by diazoxide” value in assay [1] (FIG. 2a) is “reversibly blocks”. Moreover, in assay [1] (diazoxide in the presence of 500 μM 5-HD, FIG. 3), the “flavoprotein oxidation, % of the DNP value” is recorded as 8±3%. For the same molecule, the “activation of IKATP” value in assay [2] is listed as “did not activate”. The “block of the protection by diazoxide” value in assay [3] (100 μM 5-HD) is given as “completely blocked”.
Consider `COc1ccc(Cl)cc1C(=O)NCCc1ccc(S(=O)(=O)NC(=O)NC2CCCCC2)cc1` [Glybenclamide], for which the “block of the protection from diazoxide” value in assay [3] (1 μM glybenclamide, data not shown) is listed as “blocked the protection”.
In general, EC50 refers to the concentration that produces a half-maximal response. Regarding `CC1=NS(=O)(=O)c2cc(Cl)ccc2N1` [diazoxide], the “mitochondrial oxidation, % of the DNP value” in assay [1] (100 μM, first exposure DIAZO(1), FIG. 3) worked out at 48±3%. The “oxidation of the flavoproteins (flavoprotein fluorescence)” value in assay [1] (100 μM, FIG. 1A) was “induced reversible oxidation”. Besides, the EC50 in assay [1] (Oryctolagus cuniculus, Ventricular myocyte, FIG. 5, 5-6 cells per point, read-out: EC50 to induce mitochondrial oxidation) is 27 µM. The mitochondrial oxidation in assay [1] (diazoxide exposure in the same cell as pinacidil) was found to be 41±5%. Besides, the “flavoprotein oxidation, % of the DNP value” in assay [1] (second exposure DIAZO(2) after washout, same cells, FIG. 3) is 43±5%. For the same molecule, the “activation of IKATP / membrane currents” value in assay [2] (100 μM, FIG. 1B) is “did not activate; also recorded: unchanged”. In addition, the “activation of IKATP” value in assay [2] is reported as “did not activate”. Further, the cytotoxicity at 50 µM was 18 ± 3% in assay [3] (1 h, 60 min simulated ischemia) and 23 ± 4% in assay [3] (2 h, 120 min simulated ischemia). For the same molecule, the “protection of ventricular myocytes compared with preconditioning” value in assay [3] (cellular ischemia model) is “to the same extent as preconditioning”. For the same molecule, in assay [4], the “flavoprotein fluorescence, confocal images” value was “increased fluorescence in strips parallel to the myofibril orientation”. For the same molecule, the “cardioprotective EC25” value in assay [5] is 11 µM.
For `CC(N/C(=N\C#N)Nc1ccncc1)C(C)(C)C` (centres unmarked) [pinacidil], in assay [1] (pinacidil 100 μM, FIG. 6A), the mitochondrial oxidation amounted to 35±8%. Also, in assay [2] (pinacidil 100 μM, measured at 0 mV, FIG. 6B), the “sarcolemmal IKATP” value came out at 0.74±0.54 nA.
